Experiments:
SLC35E1 = SLC35E1 (Homo sapiens, UniProt Q96K37)
SLC35F4 = molecular target: T1, SLC35F4 (Homo sapiens, UniProt A4IF30); assay: Uptake ratio screen, SLC35F4-overexpressing HEK293 over empty vector cells; type: cell-based; set-up: by amplifying the entire gene-of-interest within the HEK293 genome via a long-range PCR; conditions: 2.5 μM, 2 min
T1 sequence (A4IF30 1-521): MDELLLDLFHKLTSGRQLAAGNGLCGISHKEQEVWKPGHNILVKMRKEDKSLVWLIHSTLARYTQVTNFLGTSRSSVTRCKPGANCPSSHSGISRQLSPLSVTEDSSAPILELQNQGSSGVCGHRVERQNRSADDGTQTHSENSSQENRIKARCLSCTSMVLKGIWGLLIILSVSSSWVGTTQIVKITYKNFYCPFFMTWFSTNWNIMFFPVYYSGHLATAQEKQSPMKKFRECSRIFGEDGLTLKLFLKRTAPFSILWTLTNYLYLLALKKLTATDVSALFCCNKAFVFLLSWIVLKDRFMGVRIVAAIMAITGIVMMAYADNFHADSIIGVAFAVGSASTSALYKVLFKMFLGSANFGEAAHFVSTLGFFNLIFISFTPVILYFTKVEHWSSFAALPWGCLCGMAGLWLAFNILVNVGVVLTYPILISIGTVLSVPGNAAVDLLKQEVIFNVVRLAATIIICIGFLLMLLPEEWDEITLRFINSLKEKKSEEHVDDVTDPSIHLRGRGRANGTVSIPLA
Method: (§1) Typically discussed substrates of the proton organic-cation antiporter ([14]) are highlighted in dark green in Figure 1.
(§2) In preparation for transport experiments, 24-well plates were pre-coated with poly-D-lysine (Sigma-Aldrich) and 300,000 cells were plated per well and incubated for 48 h. Firstly, the 24-well plate was placed on a heating plate at 37 °C, and the cells were washed with 37 °C HBSS^+ buffer (Hank’s balanced salt solution supplemented with 10 mM Hepes and adjusted to pH 7.4; Thermo Fisher Scientific). The substance-of-interest, which was diluted in 37 °C HBSS^+ to a desired concentration, was added to the cells for exactly 2 min. […] The uptake was stopped with ice-cold HBSS^+, and the 24-well plate was removed from the heating plate. The cells were washed twice with the cold HBSS^+ before they were lysed for 15 min with 80% (v/v) acetonitrile containing the respective internal standard for mass spectrometry. For variations in seeded cell numbers between the cell lines, several wells were lysed in RIPA buffer and used for total protein quantification using a bicinchoninic assay ([74]) and bovine serum albumin as calibration.
(§3) The intracellular drug concentrations after transport experiments were analyzed by high-performance liquid chromatography coupled to tandem mass spectrometry analysis. The HPLC consisted of a Shimadzu Nexera HPLC System with a SIL-30AC autosampler, a LC-30AD pump, a CTO-20AC column oven, and a CBM-20A controller (Shimadzu). The reverse-phase chromatography of compounds was accomplished with a Brownlee SPP RP-Amide column with 4.6 × 100 mm inner dimensions, a particle size of 2.7 μm, and a preceding Phenomenex C-18 guard column. The mobile phase was composed of an organic additive with acetonitrile:methanol 6:1 (v/v) in total concentrations between 3% and 50% (v/v) and 0.1% (v/v) formic acid in the aqueous component of the eluent. During separation, the column oven was held at 40 °C and the mobile phase was maintained at a flow rate of 300 or 400 μl/min. After separation, the detection of substances was performed with an API 4000 tandem mass spectrometer (AB SCIEX, https://sciex.com/support/software-support/software-downloads), followed by quantification of results with the Analyst software (AB SCIEX, version 1.6.2). The composition of chromatographic conditions, as well as detailed mass spectrometric detection parameters, are listed in Table S5.
(§4) Transport-mediated net uptake was determined as fold-increase of transporter-overexpressing cells over empty vector–transfected control cells.

SLC19A2 = molecular target: T2, SLC19A2 (Homo sapiens, UniProt O60779); assay: Uptake ratio screen, SLC19A2-overexpressing HEK293 over empty vector cells; type: cell-based; conditions: 2.5 μM, 2 min
T2 construct: expressed in transfected cells
T2 sequence (O60779 1-497): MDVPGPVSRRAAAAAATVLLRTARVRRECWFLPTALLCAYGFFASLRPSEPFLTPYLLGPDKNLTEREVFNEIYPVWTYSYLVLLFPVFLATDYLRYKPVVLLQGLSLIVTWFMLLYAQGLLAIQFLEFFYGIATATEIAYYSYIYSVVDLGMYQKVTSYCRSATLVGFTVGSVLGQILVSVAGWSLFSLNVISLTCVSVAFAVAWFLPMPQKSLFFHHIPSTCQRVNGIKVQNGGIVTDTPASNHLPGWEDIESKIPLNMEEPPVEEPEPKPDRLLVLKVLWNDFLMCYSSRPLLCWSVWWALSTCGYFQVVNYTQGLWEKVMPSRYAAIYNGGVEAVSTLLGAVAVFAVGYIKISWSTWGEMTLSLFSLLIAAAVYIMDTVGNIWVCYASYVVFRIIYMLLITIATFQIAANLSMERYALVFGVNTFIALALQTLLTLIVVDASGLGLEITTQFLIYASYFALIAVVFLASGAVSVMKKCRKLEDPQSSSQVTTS
Method: as §1, §2
The intracellular drug concentrations after transport experiments were analyzed by high-performance liquid chromatography coupled to tandem mass spectrometry analysis. The HPLC consisted of a Shimadzu Nexera HPLC System with a SIL-30AC autosampler, a LC-30AD pump, a CTO-20AC column oven, and a CBM-20A controller (Shimadzu). The reverse-phase chromatography of compounds was accomplished with a Brownlee SPP RP-Amide column with 4.6 × 100 mm inner dimensions, a particle size of 2.7 μm, and a preceding Phenomenex C-18 guard column. […] After separation, the detection of substances was performed with an API 4000 tandem mass spectrometer (AB SCIEX, https://sciex.com/support/software-support/software-downloads), followed by quantification of results with the Analyst software (AB SCIEX, version 1.6.2). […]
as §4

SLC35F5 = molecular target: T3, SLC35F5 (Homo sapiens, UniProt Q8WV83); assay: Uptake ratio screen, SLC35F5-overexpressing HEK293 over empty vector cells; type: cell-based; set-up: by amplifying the entire gene-of-interest within the HEK293 genome via a long-range PCR; conditions: 2.5 μM, 2 min
T3 sequence (Q8WV83 1-523): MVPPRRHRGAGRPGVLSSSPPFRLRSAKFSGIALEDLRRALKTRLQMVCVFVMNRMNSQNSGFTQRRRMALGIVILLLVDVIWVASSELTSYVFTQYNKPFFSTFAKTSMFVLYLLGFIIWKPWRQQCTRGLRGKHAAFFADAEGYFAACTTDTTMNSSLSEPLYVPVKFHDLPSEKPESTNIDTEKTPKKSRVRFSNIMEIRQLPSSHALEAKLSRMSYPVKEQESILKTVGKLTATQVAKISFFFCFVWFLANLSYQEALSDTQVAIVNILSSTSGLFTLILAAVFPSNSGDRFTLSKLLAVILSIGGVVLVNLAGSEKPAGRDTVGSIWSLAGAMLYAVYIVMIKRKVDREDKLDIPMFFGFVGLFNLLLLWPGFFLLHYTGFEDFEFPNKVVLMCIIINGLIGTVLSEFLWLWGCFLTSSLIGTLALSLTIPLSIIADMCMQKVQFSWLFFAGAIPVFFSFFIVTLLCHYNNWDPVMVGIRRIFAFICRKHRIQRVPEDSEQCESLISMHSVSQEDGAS
Method: as §1, §2, §3, §4

Chain of SLC35E1 (Q96K37 whole entry): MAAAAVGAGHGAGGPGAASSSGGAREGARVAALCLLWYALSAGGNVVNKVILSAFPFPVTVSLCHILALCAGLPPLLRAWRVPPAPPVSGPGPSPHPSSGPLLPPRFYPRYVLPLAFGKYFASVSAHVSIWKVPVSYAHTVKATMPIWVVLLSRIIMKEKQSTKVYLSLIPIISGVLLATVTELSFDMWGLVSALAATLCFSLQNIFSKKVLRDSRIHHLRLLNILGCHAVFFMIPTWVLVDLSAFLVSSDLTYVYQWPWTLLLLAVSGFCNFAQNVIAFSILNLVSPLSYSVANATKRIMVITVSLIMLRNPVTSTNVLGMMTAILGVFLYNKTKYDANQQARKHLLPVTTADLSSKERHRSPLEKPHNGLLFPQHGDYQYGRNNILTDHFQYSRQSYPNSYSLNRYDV

## C[N+](C)(C)CCO [Choline]
SLC35E1
  Clint (±SEM): 0.95 (±0.57) μl × mg protein^-1 × min^-1
SLC35F4
  Uptake by SLC35F4 (in words): enhanced cell uptake
SLC19A2
  Uptake by SLC19A2 (in words): enhance cell uptake
SLC35F5
  Uptake by SLC35F5 (in words): highest uptake rates
